Data published in patent US10526373B2, “Peptide showing melanin generation-promoting activity and use thereof” (CAREGEN CO., LTD., priority 2016, dated 2020).
No end group written: not given here.

Experiments:
Assay type in all cases: cell-based
[1] = test system: melanocytes (B16F10 cell line); experiment: Melanogenesis assay; details: mouse melanin cell line B16F10, peptide at different concentrations, 72 hours
Description: After melanocytes (B16F10 cell line) in 6-well plates were cultured in an incubator at 37° C. for 24 hours, the medium of each plate was removed and exchanged with fresh medium, followed by treatment with the present peptide at different concentrations. After the incubation for 72 hours, the culture medium was removed, and the cells were taken off and then transferred into 5-ml tubes, followed by centrifugation at 13,000 rpm for 3 minutes. The supernatant was removed, and cell pellets were collected to observe melanin. Then, 150 μl of 2 M NaOH was added to the cell pellets to lyse intracellular melanin at 60° C. for 30 minutes. Then, 100 μl of the supernatant obtained from the lysis was added into each well of 96-well plates, and the absorbance was measured at 490 nm.

tyrosinase [2] = experiment: Tyrosinase activity assay in B16F10 cell lysate (L-dopa); details: mouse melanin cell line B16F10, peptide at different concentrations, 72 hours
Description: Melanoma cell line (B16F10) cells were cultured in 6-well culture plates for 24 hours, and treated with the peptide with difference concentrations, followed by culture for 72 hours. The 6-well culture plates were loaded on ice and washed with cool PBS, and then 300 μl of 0.1 M sodium phosphate buffer (pH 6 lysis buffer) containing 1% Triton X-100 was added. The cells were collected in 1.5-mL tubes, and then cell membranes were disrupted by repeating five times rapid-freezing at […] and thawing. After centrifugation at 13,000 rpm for 20 minutes, the supernatant was collected in other 1.5-mL tubes, and the protein of the samples was quantified. The samples were diluted to have the same protein concentration and then dispensed in every three wells in 96-well culture plates, and then 20 μl of 10 mM L-dopa was added, followed by incubation at 37° C. for 1 hour. The absorbance was measured at 475 nm.

MITF [3] = experiment: RT-PCR of melanogenesis-related genes: MITF; details: mouse melanin cell line B16F10, 72 hours
Description: (§1) Melanocytes (B16F10 cell line) were incubated on 6-well culture plates in an incubator for 24 hours, and were treated with the peptides of the present invention with different concentrations. After RNA was extracted from the cells incubated for 72 hours, cDNA was prepared. PCR was performed by using respective primers specific to MITF and tyrosinase, which are the factors involved in melanogenesis, and the expression changes of the respective genes were observed.

tyrosinase [4] = experiment: RT-PCR of melanogenesis-related genes: tyrosinase; details: mouse melanin cell line B16F10, 72 hours
Description: as §1

TRP1 = experiment: RT-PCR of melanogenesis-related genes: TRP1; details: mouse melanin cell line B16F10, 72 hours
tyrosinase [5] = experiment: Western blotting of melanogenesis-related proteins: tyrosinase; details: mouse melanin cell line B16F10, 72-hour incubation
Description: (§2) Melanocytes (B16F10 cell line) were incubated on 6-well culture plates in an incubator for 24 hours, and were treated with the peptides of the present invention with different concentrations. After 72-hour incubation, the cells were lysed, and the cells were subjected to western blotting using specific antibodies (two types, both by Santa Cruz Biotechnology, USA) to investigate the expression of MITF and tyrosinase, which are the factors involved in melanogenesis.

MITF [6] = experiment: Western blotting of melanogenesis-related proteins: MITF; details: mouse melanin cell line B16F10, 72-hour incubation
Description: as §2

CREB = experiment: Melanogenesis-related protein activity assay (CREB phosphorylation, western blotting); details: mouse melanin cell line B16F10, 72-hour incubation
Description: as §2, with “peptide” for “peptides”, “(Cell Signaling Technology,” for “(two types, both by Santa Cruz Biotechnology,”, “phosphorylation level” for “expression”, “CREB,” for “MITF and tyrosinase,”, “is a signaling substance” for “are the factors”

FCLGPCPYIWSL (cysteine pairing not given here) [SEQ ID NO: 2]
increased: melanogenesis (melanin, absorbance at 490 nm) [1] | tyrosinase activity (absorbance at 475 nm) (tyrosinase [2]) | mRNA expression of MITF (MITF [3]) | mRNA expression of tyrosinase (tyrosinase [4]) | mRNA expression of TRP1 (TRP1) | protein expression of tyrosinase (tyrosinase [5])

RWRRKIEN [SEQ ID NO: 1]
increased: melanogenesis (melanin, absorbance at 490 nm) [1] | tyrosinase activity (absorbance at 475 nm) (tyrosinase [2]) | mRNA expression of MITF (MITF [3]) | mRNA expression of tyrosinase (tyrosinase [4]) | mRNA expression of TRP1 (TRP1) | protein expression of the MITF transcriptional factor (MITF [6]) | protein expression of tyrosinase (tyrosinase [5]) | phosphorylation level of CREB (CREB)
